Assay results: patent EP1059033A1, “INDUSTRIAL ANTIBACTERIAL/ANTIFUNGAL AGENTS, ALGICIDES AND ANTI-BIOLOGICAL ADHESION AGENTS CONTAINING BENZYLAMINES” (Nissan Chemical Industries, Ltd., priority 1998, dated 1999)
Converted amounts (≈) assume the structure as drawn. Blank lines part the entries; values can stand above or below the compound they belong to.

Assays:
[1] = test system: freshwater green alga (Selenastrum capricornutum); test: Inhibition of propagation of freshwater green alga (Example 4); format: cell-based; details: 500ppb, after 72 hours, cell number vs non-treated lot, read-out: Propagation inhibiting rate(%) 500ppb
Method: A predetermined amount of each of the compounds of the invention was dissolved in a culture medium containing 10^5 /ml of a freshwater green alga (Selenastrum capricornutum) at a logarithmic growth phase to prepare samples having a concentration of the compound of the invention in the medium of 500 ppb and 50ppb respectively. The samples were stationary cultured at 23±1 °C for […] under continuous illumination.
After 72 hours, the number of cells was measured using a hemacytometer to obtain propagation rate. The propagation inhibiting rate was calculated from comparison with the non-treated lot.

[2] = test system: Trichophyton mentagrophytes; test: Agar dilution MIC (Example 2); format: cell-based; details: 168 h, agar plate, 27 °C, 7 days
Method: (§1) Series of diluted samples (20000, 10000, 5000, 2500, 2000, 1250, 625, 313, 156, 78, 39, 20, 10, 5, 2.5, 1.25 mg/l) of the compounds of the invention were prepared using dimethylsulfoxide. A sensitive culture medium-N (Nissui Seiyaku Co.) was used for bacteria and a potato dextrose agar culture medium (Nissui Seiyaku Co.) was used for fungi. 0.5 ml of each sample was added to and mixed with 9.5 ml of the culture medium, poured into a Petri dish and solidified to obtain a plate. As a result, the concentration of the compounds of the invention in the agar culture medium were 1000, 500, 250, 125, 100, 62.5, 31.3, 15.6, 7.8, 3.9, 2.0, 1.0, 0.5, 0.25, 0.125, 0.062 mg/l. The bacterium inoculated were cultured in a bouillon for the assay of sensitivity (Nissui Seiyaku Co.) at 37 °C for 20 hours, and the fungi were cultured in the potato dextrose agar culture medium (Nissui Seiyaku Co.) for 10 days and then a 10^6 CFU/ml suspension was prepared from each of them. A test bacteria or fungi suspension was streaked on an agar plate containing the compound of the present invention with platinum wire loop, and the agar plate was cultured at 37±1 °C for 18 to 20 hours for bacteria or at 27 °C for 7 days for fungi. A concentration at which no growth was seen was taken as minimum inhibitory concentration [MIC(mg/l)]. Symbols in the table mean the followings; • A: Bacillus subtilis, • B: Trichophyton mentagrophytes, • C: Rhodotorula mucilaginosa.

Bacillus subtilis [3] = test: Agar dilution MIC (Example 2); format: cell-based; details: agar plate, 37±1 °C, 18 to 20 hours
Method: as §1

Aspergillus niger = test: Agar dilution MIC (Example 3); format: cell-based; details: 168 h, agar plate, 27 °C, 7 days
Method: (§2) Series of diluted samples (20000, 10000, 5000, 2500, 1250, 625, 313, 156, 78, 39 mg/l) of the compounds of the invention were prepared using dimethylsulfoxide. A sensitive culture medium-N (Nissui Seiyaku Co.) was used for bacteria and a potato dextrose agar culture medium (Nissui Seiyaku Co.) was used for fungi. 0.5 ml of each sample was added to and mixed with 9.5 ml of the culture medium, poured into a Petri dish and solidified to obtain a plate. As a result, the concentration of the compounds of the invention in the agar culture medium were 1000, 500, 250, 125, 62.5, 31.3, 15.6, 7.8, 3.9, 2.0 mg/l. The bacterium inoculated were cultured in a bouillon for the assay of sensitivity (Nissui Seiyaku Co.) at 37 °C for 20 hours, and the fungi were cultured in the potato dextrose agar culture medium (Nissui Seiyaku Co.) for 10 days and then a 10^6 CFU/ml suspension was prepared from each of them. A test bacteria or fungi suspension was streaked on an agar plate containing the compound of the present invention with platinum wire loop, and the agar plate was cultured at 37±1 °C for 18 to 20 hours for bacteria or at 27 °C for 7 days for fungi. A concentration at which no growth was seen was taken as minimum inhibitory concentration (MIC). Symbols in the tables mean the followings; • A: Bacillus subtilis, • B: Trichophyton mentagrophytes, • C: Staphylococcus aureus, • D: Aspergillus niger, • E: Penicillium funiculosum, • F: Candida albicans, • G: Micrococcus luteus, • H: Corynebacterium aquaticum, • I: Chaetomium globosum, • J: Fusarium moniliforme, • K: Saccharomyces cerevisiae, • L: Rhodotorula rubra, • M: Cladosporium cladosporioides, • N: Alternaria alternata.

[4] = test system: Trichophyton mentagrophytes; test: Agar dilution MIC (Example 3); format: cell-based; details: 168 h, agar plate, 27 °C, 7 days
Method: as §2

Bacillus subtilis [5] = test: Agar dilution MIC (Example 3); format: cell-based; details: agar plate, 37±1 °C, 18 to 20 hours
Method: as §2

Candida albicans = test: Agar dilution MIC (Example 3); format: cell-based; details: 168 h, agar plate, 27 °C, 7 days
Method: as §2

Penicillium funiculosum = test: Agar dilution MIC (Example 3); format: cell-based; details: Talaromyces funiculosus, 168 h, agar plate, 27 °C, 7 days
Method: as §2

[6] = test system: seawater diatom [Nitzschia closterium]; test: Inhibition of propagation of seawater diatom (Example 5); format: cell-based; details: Cylindrotheca closterium, 72 h, read-out: Propagation inhibiting rate(%) 500ppb
Method: A predetermined amount of each of the compounds of the invention was dissolved in culture media containing 10^5 /ml of a seawater diatom [Nitzschia closterium] at a logarithmic growth phase to prepare samples having a concentration of the compound in the medium of 500 ppb. The samples were stationary cultured at 22±1 °C for […] under continuous illumination.
After 72 hours, cells were collected by centrifugation and disrupted by addition of methanol to extract chlorophyll, and the amount of chlorophyll was measured from absorbance using a spectrophotometer to obtain propagation rate. The propagation inhibiting rate was calculated from comparison with the non-treated lot.

Rhodotorula mucilaginosa = test: Agar dilution MIC (Example 2); format: cell-based; details: 168 h, agar plate, 27 °C, 7 days
Method: as §1

[7] = test system: Corynebacterium aquaticum; test: Agar dilution MIC (Example 3); format: cell-based; details: Leifsonia aquatica, agar plate, 37±1 °C, 18 to 20 hours
Method: as §2

Alternaria alternata = test: Agar dilution MIC (Example 3); format: cell-based; details: 168 h, agar plate, 27 °C, 7 days
Method: as §2

Rhodotorula rubra = test: Agar dilution MIC (Example 3); format: cell-based; details: 168 h, agar plate, 27 °C, 7 days
Method: as §2

Fusarium moniliforme = test: Agar dilution MIC (Example 3); format: cell-based; details: Fusarium verticillioides, 168 h, agar plate, 27 °C, 7 days
Method: as §2

Chaetomium globosum = test: Agar dilution MIC (Example 3); format: cell-based; details: 168 h, agar plate, 27 °C, 7 days
Method: as §2

Saccharomyces cerevisiae = test: Agar dilution MIC (Example 3); format: cell-based; details: 168 h, agar plate, 27 °C, 7 days
Method: as §2

blue mussel = test: Antifouling (adhesion repellent) activity against blue mussel (Example 7); format: in vivo, Mytilus edulis; design: key: ++: not adhered in the zone and strong repellent effect is observed; +: adhesion in zone is observed but most of them adhered out of zone and repellent effect is observed; -: adhered in and out of zone alike and repellent effect is not observed; details: seawater, dark, 3 hours
Method: The compound of the invention was completely dissolved in 1 ml of acetone and the resulting solution was uniformly applied to a 4 cm-diameter zone drawn on a test plate. A zone coated with acetone alone as blank and zones coated with 1.0 mg and 0.5 mg of copper sulfate as a comparison chemical were also prepared. After drying, four blue mussel having a shell length of about 2 to 2.5 cm were adhered around each zone using a rubber piece as a spacer. The thus prepared test plate was immersed in a water tank to which seawater ran and left to stand in the dark for 3 hours.
The adhesion controlling effect (adhesion repellent activity) was obtained from comparison with copper sulfate used as a comparison chemical.
The evaluation of adhesion repellent activity was based on "Evaluation method of adhesion repellent substance to marine adhesion organisms using Mytilus edulis" written by Kazuo Ina and Hideo Etoh (Chemistry and Biology, vol.28 (No.2), pp.132-138, 1990).
Symbols in the table mean the followings; • ++: not adhered in the zone and strong repellent effect is observed, • +: adhesion in zone is observed but most of them adhered out of zone and repellent effect is observed, • -: adhered in and out of zone alike and repellent effect is not observed.

- MIC [2]: 7.8 µg/mL (≈ 24.2 µM)
- MIC (Bacillus subtilis [3]): 7.8 µg/mL (≈ 24.2 µM)
- MIC (Aspergillus niger): 125 µg/mL (≈ 388 µM)
- MIC [4]: 7.8 µg/mL (≈ 24.2 µM)
- MIC (Bacillus subtilis [5]): 7.8 µg/mL (≈ 24.2 µM)
- MIC (Candida albicans): 62.5 µg/mL (≈ 194 µM)
- MIC (Penicillium funiculosum): 62.5 µg/mL (≈ 194 µM)
Structure (SMILES): CC(C)(C)c1ccc(CNCc2cccc(Cl)c2Cl)cc1 [Compound 16]
- inhibition at 0.5 ppm [1]: 90%
- inhibition at 0.5 ppm [6]: 80%

- MIC [2]: 0.25 µg/mL (≈ 0.743 µM)
- MIC (Bacillus subtilis [3]): 15.6 µg/mL (≈ 46.4 µM)
Structure (SMILES): CN(Cc1ccc(C(C)(C)C)cc1)Cc1c(Cl)cccc1Cl [Compound 19]

- MIC [2]: 2 µg/mL (≈ 6.46 µM)
- MIC (Rhodotorula mucilaginosa): 15.6 µg/mL (≈ 50.4 µM)
- MIC (Aspergillus niger): 7.8 µg/mL (≈ 25.2 µM)
- MIC [7]: 7.8 µg/mL (≈ 25.2 µM)
- MIC (Alternaria alternata): 15.6 µg/mL (≈ 50.4 µM)
- MIC (Rhodotorula rubra): 31.3 µg/mL (≈ 101 µM)
- MIC (Fusarium moniliforme): 31.3 µg/mL (≈ 101 µM)
- MIC (Chaetomium globosum): 31.3 µg/mL (≈ 101 µM)
- MIC (Saccharomyces cerevisiae): 15.6 µg/mL (≈ 50.4 µM)
- MIC (Penicillium funiculosum): 15.6 µg/mL (≈ 50.4 µM)
Structure (SMILES): Cc1cc(C)c(CN(C)Cc2ccc(C(C)(C)C)cc2)c(C)c1 [Compound 20]
- inhibition at 0.5 ppm [1]: 63%

Structure (SMILES): O=S(=O)([O-])[O-].[Cu+2] [Copper sulfate]
- Judgment (adhesion repellent activity against blue mussel) (blue mussel; Amount of chemical 0.5 mg on 4 cm-diameter zone): -
- Judgment (adhesion repellent activity against blue mussel) (blue mussel; Amount of chemical 1.0 mg on 4 cm-diameter zone): +
